Source: patent publication US10098878B2, “HIF-2α inhibitors for treating iron overload disorders” (The Board of Regents of the University of Texas System, priority 2014, dated 2018)
Like-named read-outs stand apart in the source and are kept apart here.

What was measured:
786-0 cells = assay: VEGF ELISA Assay; format: cell-based
Method: Each concentration had duplicated wells. About 20 hours later, medium was removed by suction and each well was supplied with 180 μL of growth medium. About 20 μl freshly-made 10× compound stocks were added to each well. […] The EC50 was calculated by GraphPad Prism using the dose-response-inhibition (four parameter) equation. The cell seeded plate was then subjected to CellTiter-Glo luminescence cell viability assay (Promega) by adding 50 μL of Celltiter Glo reagent into each well and shaking the plate for 8 minutes at 550 rpm (Thermomixer R, Eppendorf) then read luminescence signal in plate reader (3 second delay, 0.5 second/well integration time, Synergy 2 multi Detection Microplate reader) immediately.

[1] = biological target: T1, HIF-2α HIS TAG-PASB Domain (Homo sapiens, UniProt Q99814); assay: HIF-2α Scintillation Proximity Assay (SPA); format: binding; conditions: 100 nM HIF-2α HIS TAG-PASB Domain
T1 construct: 100 nM HIF-2α HIS TAG-PASB Domain
T1 sequence (Q99814 240-350 limits assumed): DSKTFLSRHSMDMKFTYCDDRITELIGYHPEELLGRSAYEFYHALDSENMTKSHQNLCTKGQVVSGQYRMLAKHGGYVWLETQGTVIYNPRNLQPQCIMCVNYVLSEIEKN
Method in brief: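 IC50 values rest on percent inhibition, where the sample signal is scaled between high and low controls. Wells contain about 100 μL: compound dispensed as 2 μL of DMSO solution, 88 μL protein-probe mix and 10 μL of beads.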

786-O-Hif-Luc cells = assay: Luciferase Assay; format: cell-based; conditions: read-out: Luciferase EC50
Method: A pool of infected cells were then selected against 2 μg/mL of puromycin (P8833, Sigma) for 10 days followed by limited dilution to select single clones.
Each concentration was tested in triplicate. After about 24 hours, luciferase activity was determined using ONE-Glo Luciferase Assay Reagent (E6110, Promega) following the manufacturer's recommended procedure. EC50 were calculated by using Dotmatics software.

[2] = Homo sapiens, 786-0, 786-0 cells, VEGFA concentration in cell culture medium, read-out: VEGF ELISA EC50
[3] = 150 nM Compound 211 probe, read-out: SPA IC50
[4] = 24 h, 786-O-Hif-Luc cells, about 24 hours
[5] = 786-0 cells, VEGFA concentration in cell culture medium, read-out: VEGF ELISA EC50
[6] = 786-O-Hif-Luc cells, about 24 hours
[7] = SPA IC50, 150 nM Compound 211 probe

Row | Compound | EC50 (786-0 cells; [2]) [nM] | IC50 [1, 3] [nM] | EC50 (786-O-Hif-Luc cells; [4]) [nM] | EC50 (786-0 cells; [5]) [nM] | EC50 (786-O-Hif-Luc cells; [6]) [nM] | IC50 [1, 7] [nM] | EC50 (786-0 cells; Homo sapiens, 786-0, read-out: VEGF ELISA EC50) [nM] | EC50 (786-O-Hif-Luc cells; 24 h) [nM]
1 | CS(=O)(=NC#N)c1ccc(Oc2cncc(C#N)c2)c2c1[C@H](O)C(F)(F)[C@@H]2F (single isomer, unassigned) [Compound 83] | 95 | 14 | 83 |  |  |  |  | 
2 | N#Cc1cc(F)cc(Oc2ccc(S(=O)(=O)CF)c3c2CC(F)(F)[C@H]3O)c1 [Compound 3, (S)-3-((2,2-difluoro-7-((fluoromethyl)sulfonyl)-1-hydroxy-2,3-dihydro-1H-inden-4-yl)oxy)-5-fluorobenzonitrile] | 20 |  | 7 |  |  | < 5 |  | 
3 | Cc1cc(C#N)cc(Oc2ccc(S(=O)(=O)CF)c3c2CC(F)(F)[C@H]3O)c1 [Compound 7, (S)-3-((2,2-Difluoro-7-((fluoromethyl)sulfonyl)-1-hydroxy-2,3-dihydro-1H-inden-4-yl)oxy)-5-methylbenzonitrile] | 70 | < 5 | 34 |  |  |  |  | 
4 | N#Cc1cc(F)cc(Oc2ccc(S(=O)(=O)C(F)(F)F)c3c2CC(F)(F)[C@H]3O)c1 [Compound 8, (S)-3-((2,2-Difluoro-1-hydroxy-7-((trifluoromethyl)sulfonyl)-2,3-dihydro-1H-inden-4-yl)oxy)-5-fluorobenzonitrile] | 4 |  | 3 |  |  | < 5 |  | 
5 | N#Cc1cncc(Oc2ccc(S(=O)(=O)C(F)(F)F)c3c2C[C@@H](F)[C@H]3O)c1 [Compound 14, 5-(((1S,2R)-2-Fluoro-1-hydroxy-7-((trifluoromethyl)sulfonyl)-2,3-dihydro-1H-inden-4-yl)oxy)nicotinonitrile] | 69 | < 5 | 25 |  |  |  |  | 
6 | N#Cc1cc(Oc2ccc(S(=O)(=O)C(F)(F)F)c3c2CC(F)(F)[C@H]3O)c[n+]([O-])c1 [Compound 31, (S)-3-cyano-5-((2,2-difluoro-1-hydroxy-7-((trifluoromethyl)sulfonyl)-2,3-dihydro-1H-inden-4-yl)oxy)pyridine 1-oxide] | 830 | 110 | 160 |  |  |  |  | 
7 | CS(=O)(=O)c1ccc(Oc2cc(F)cc(C#N)c2)c2c1[C@H](O)C(F)(F)[C@@H]2F [Compound 56, 3-fluoro-5-[(1S,3R)-2,2,3-trifluoro-1-hydroxy-7-methylsulfonyl-indan-4-yl]oxy-benzonitrile] |  | < 5 |  |  |  |  | 6 | 3
8 | CS(=O)(=O)c1ccc(Oc2cc(F)cc(Br)c2)c2c1[C@H](O)C(F)(F)C2 [Compound 68, (S)-4-(3-bromo-5-fluorophenoxy)-2,2-difluoro-7-(methylsulfonyl)-2,3-dihydro-1H-inden-1-ol] | 62 | < 5 | 22 |  |  |  |  | 
9 | O=S(=O)(c1ccc(Oc2cncc(F)c2)c2c1[C@H](O)C(F)(F)C2)C(F)(F)F [Compound 73, (S)-2,2-difluoro-4-((5-fluoropyridin-3-yl)oxy)-7-((trifluoromethyl)sulfonyl)-2,3-dihydro-1H-inden-1-ol] | 26 | < 5 | 9 |  |  |  |  | 
10 | N#Cc1cncc(Oc2ccc(S(=N)(=O)C(F)(F)F)c3c2CC(F)(F)[C@H]3O)c1 (stereo partly drawn) [Compound 78, 5-(((1S)-2,2-difluoro-1-hydroxy-7-(S-(trifluoromethyl)sulfonimidoyl)-2,3-dihydro-1H-inden-4-yl)oxy)nicotinonitrile] | 83 | 25 | 148 |  |  |  |  | 
11 | N#Cc1cncc(Oc2ccc(S(=N)(=O)C(F)(F)F)c3c2CC(F)(F)[C@H]3O)c1 (stereo partly drawn) [Compound 79, 5-(((1S)-2,2-difluoro-1-hydroxy-7-(S-(trifluoromethyl)sulfonimidoyl)-2,3-dihydro-1H-inden-4-yl)oxy)nicotinonitrile] |  | 23 |  | 116 | 106 |  |  | 
12 | CS(=O)(=O)c1ccc(Oc2cncc(C#N)c2)c2c1[C@H](O)C(F)(F)C2 [Compound 89, (S)-5-((2,2-Difluoro-1-hydroxy-7-(methylsulfonyl)-2,3-dihydro-1H-inden-4-yl)oxy)nicotinonitrile] | 146 | 180 | 488 |  |  |  |  | 
13 | CS(=O)(=O)c1ccc(Oc2cncc(Br)c2)c2c1[C@H](O)[C@H](F)[C@@H]2F [Compound 92, (1S,2S,3R)-4-((5-Bromopyridin-3-yl)oxy)-2,3-difluoro-7-(methylsulfonyl)-2,3-dihydro-1H-inden-1-ol] | 187 | 32 | 162 |  |  |  |  | 
14 | CS(=O)(=O)c1ccc(Oc2cncc(F)c2)c2c1[C@H](O)C(F)(F)[C@@H]2F [Compound 93, (1S,3R)-2,2,3-trifluoro-4-((5-fluoropyridin-3-yl)oxy)-7-(methylsulfonyl)-2,3-dihydro-1H-inden-1-ol] | 47 | < 5 | 34 |  |  |  |  | 
15 | CS(=O)(=O)c1ccc(Oc2cncc(Cl)c2)c2c1[C@H](O)C(F)(F)[C@@H]2F [Compound 95, (1S,3R)-4-((5-chloropyridin-3-yl)oxy)-2,2,3-trifluoro-7-(methylsulfonyl)-2,3-dihydro-1H-inden-1-ol] | 41 | 7.2 | 41 |  |  |  |  | 
16 | N#Cc1cncc(Oc2ccc(S(N)(=O)=O)c3c2[C@@H](F)C(F)(F)[C@H]3O)c1 [Compound 104, (1R,3S)-7-[(5-cyano-3-pyridyl)oxy]-1,2,2-trifluoro-3-hydroxy-indane-4-sulfonamide] | 136 | 24 | 125 |  |  |  |  | 
17 | NS(=O)(=O)c1ccc(Oc2cncc(F)c2)c2c1[C@H](O)C(F)(F)[C@@H]2F [Compound 105, (1R,3S)-1,2,2-trifluoro-7-[(5-fluoro-3-pyridyl)oxy]-3-hydroxy-indane-4-sulfonamide] | 160 | 18 | 114 |  |  |  |  | 

Continued, in another order:

Row | EC50 (786-0 cells; [2]) [nM] | IC50 [1, 3] [nM] | EC50 (786-O-Hif-Luc cells; [4]) [nM] | EC50 (786-0 cells; [5]) [nM] | EC50 (786-O-Hif-Luc cells; [6]) [nM] | IC50 [1, 7] [nM] | Compound | EC50 (786-0 cells; Homo sapiens, 786-0, read-out: VEGF ELISA EC50) [nM] | EC50 (786-O-Hif-Luc cells; 24 h) [nM]
18 | 17 | < 5 | 12 |  |  |  | CS(=O)(=NC#N)c1ccc(Oc2cc(F)cc(C#N)c2)c2c1[C@H](O)C(F)(F)[C@@H]2F (single isomer, unassigned) [Compound 80] |  | 
19 |  | 32 |  | 190 | 114 |  | CS(=O)(=NC#N)c1ccc(Oc2cncc(C#N)c2)c2c1[C@H](O)C(F)(F)[C@@H]2F (single isomer, unassigned) [Compound 85] |  | 
20 | 90 | 29 | 69 |  |  |  | N=S1(=O)c2ccc(Oc3cc(F)cc(F)c3)c(C(F)F)c2C(O)C1(F)F (single isomer, unassigned) [Compound 162, 4-(Difluoromethyl)-5-(3,5-difluorophenoxy)-2,2-difluoro-3-hydroxy-1-imino-2,3-dihydro-1H-1λ^4-benzo[b]thiophene 1-oxide] |  | 
21 | 13 | < 5 | 11 |  |  |  | O=S(=O)(c1ccc(Oc2cncc(Cl)c2)c2c1[C@H](O)C(F)(F)C2)C(F)(F)F [Compound 9, (S)-4-((5-Chloropyridin-3-yl)oxy)-2,2-difluoro-7-((trifluoromethyl)sulfonyl)-2,3-dihydro-1H-inden-1-ol] |  | 
22 | 6 | < 5 | 5 |  |  |  | N#Cc1cc(F)cc(Oc2ccc(C(F)(F)F)c3c2CC(F)(F)[C@H]3O)c1 [Compound 37, 3-[(1S)-2,2-Difluoro-1-hydroxy-7-(trifluoromethyl)indan-4-yl]oxy-5-fluoro-benzonitrile] |  | 
23 | 64 | 37 | 35 |  |  |  | N#Cc1cncc(Oc2ccc(C(F)(F)F)c3c2CC(F)(F)[C@H]3O)c1 [Compound 67, 5-[(1S)-2,2-difluoro-1-hydroxy-7-(trifluoromethyl)indan-4-yl]oxypyridine-3-carbonitrile] |  | 
24 | 140 | 16 | 113 |  |  |  | O=S(=O)(c1ccc(Oc2cc(F)c[n+]([O-])c2)c2c1[C@H](O)C(F)(F)C2)C(F)(F)F [Compound 74, (S)-3-((2,2-difluoro-1-hydroxy-7-((trifluoromethyl)sulfonyl)-2,3-dihydro-1H-inden-4-yl)oxonio)-5-fluoropyridine 1-oxide] |  | 
25 | 273 | 28 | 129 |  |  |  | CS(=O)(=O)c1ccc(Oc2ccc(F)c(C#N)c2)c2c1[C@H](O)C(F)(F)[C@@H]2F [Compound 91, 2-Fluoro-5-(((1S,3R)-2,2,3-trifluoro-1-hydroxy-7-(methylsulfonyl)-2,3-dihydro-1H-inden-4-yl)oxy)benzonitrile] |  | 
26 | 163 | 74 | 174 |  |  |  | CS(=O)(=O)c1ccc(Oc2cncc(C#N)c2)c2c1[C@H](O)[C@H](F)[C@@H]2F [Compound 97, 5-(((1S,2S,3R)-2,3-difluoro-1-hydroxy-7-(methylsulfonyl)-2,3-dihydro-1H-inden-4-yl)oxy)nicotinonitrile] |  | 
